Entries after “also recorded” stand apart in the source; their conditions may differ.
Legend:
[1] = Dynamic rheology of hm-chitosan + vesicle mixtures; type: physicochemical; settings: 28.6 mM cyclodextrin; hm-chitosan 0.238 wt %, vesicles 0.952 wt %
Source text: (§1) The surfactant system employed was a mixture of the cationic surfactant, cetyl trimethylammonium tosylate (CTAT), and the anionic surfactant, sodium dodecyl benzene sulfonate (SDBS). The surfactants were purchased from Aldrich, and all solutions were made using distilled-deionized water. The phase diagram for CTAT/SDBS mixtures has been reported previously.^31 To form vesicles, CTAT and SDBS were mixed at a weight ratio of 70/30, respectively, at a combined 2 wt % concentration in water. The mixture was stirred overnight to ensure complete dissolution and equilibration of the vesicles prior to experiments.
(§2) Steady and dynamic rheological experiments were performed on a […] AR2000 stress-controlled rheometer. A cone-and-plate geometry of 40 mm diameter and 4° cone angle was used and samples were run at the physiological temperature of 37° C. Dynamic frequency spectra were obtained in the linear viscoelastic regime of the samples, as determined from dynamic strain sweep experiments.
However, at practical time scales, the hm-chitosan+vesicle+α-CD mixture behaves as a freely flowing liquid.

[2] = general statement, no test described; cited from earlier work
[3] = Steady shear rheology of hm-chitosan + vesicle mixtures; type: physicochemical; settings: for zero-shear viscosity: hm-chitosan (benz-C18, 1.5% modified) 0.238 wt %, 37° C.; for zero-shear viscosity / viscosity drop on addition of cyclodextrin: vesicles 0.952 wt %; for viscosity drop on addition of cyclodextrin: 28.6 mM vs 0 mM cyclodextrin, hm-chitosan 0.238 wt %; for reversal of gelation of vesicles by hm-chitosan: hm-chitosan and vesicle mixtures
Source text: as §1, §2
The concentrations of hm-chitosan and vesicles were held constant at 0.238 wt % and 0.952 wt %, respectively, in both samples. One sample contained 0 mM α-CD (open diamonds) and the other contained 28.6 mM α-CD (open circles).

[4] = system: human heparinized blood; assay: Dynamic rheology of hm-chitosan blood gel; type: cell-based; settings: 3 wt % α-CD, 0.25 wt % hm-chitosan blood gel, 37° C.
Experimental: (§3) 5 human subjects volunteered to have 20 mL of blood drawn by a registered nurse at the UMD School of Medicine. Subjects were healthy adults ranging age from 20 to 40 years of age (4 males, 1 female). 10 mL intervals of blood were drawn into Becton Dickinson Vacutainers® containing 143 USP units of sodium heparin. The protocol was approved by the Institutional Research Board (IRB) at UMD.
as §2

[5] = system: human heparinized blood; assay: Visual observation / vial inversion of blood gelled by hm-chitosan; type: cell-based; settings: 3 wt % α-CD added to blood gel formed with 0.25 wt % hm-chitosan
Experimental: as §3
FIG. 3(a) is a photograph of human heparinized blood gelled by 0.25 wt % hm-chitosan. […] Note that this sample […] hold its own weight upon vial inversion.

In the case of `OC[C@H]1O[C@@H]2O[C@H]3[C@H](O)[C@@H](O)[C@@H](O[C@H]4[C@H](O)[C@@H](O)[C@@H](O[C@H]5[C@H](O)[C@@H](O)[C@@H](O[C@H]6[C@H](O)[C@@H](O)[C@@H](O[C@H]7[C@H](O)[C@@H](O)[C@@H](O[C@H]8[C@H](O)[C@@H](O)[C@@H](O[C@H]9[C@H](O)[C@@H](O)[C@@H](O[C@H]1[C@H](O)[C@H]2O)O[C@@H]9CO)O[C@@H]8CO)O[C@@H]7CO)O[C@@H]6CO)O[C@@H]5CO)O[C@@H]4CO)O[C@@H]3CO` [γ-CD, γ-cyclodextrin], the “dynamic rheology behaviour as ω→0 (long time scales)” value [1] is listed as “G′ and G″ are not observed to overlap, indicating that the sample does not become more gel-like as t→∞”, the dynamic rheology response [1] is listed as “viscous liquid” and the “solubility (solvent)” value [2] is listed as “soluble in water”. The zero-shear viscosity ([3]; 0 mM cyclodextrin, in Pa·s) was ~10^1, the “viscosity drop relative to the drop caused by α-CD” value ([3]; 28.6 mM cyclodextrin) was “thousand-fold lower” and the “viscosity drop on addition of cyclodextrin” value [3] was “thousand-fold”. The “reversal of gelation of vesicles by hm-chitosan” value [3] was “reverse the gelation of vesicles by hm-chitosan”.

For `OC[C@H]1O[C@@H]2O[C@H]3[C@H](O)[C@@H](O)[C@@H](O[C@H]4[C@H](O)[C@@H](O)[C@@H](O[C@H]5[C@H](O)[C@@H](O)[C@@H](O[C@H]6[C@H](O)[C@@H](O)[C@@H](O[C@H]7[C@H](O)[C@@H](O)[C@@H](O[C@H]1[C@H](O)[C@H]2O)O[C@@H]7CO)O[C@@H]6CO)O[C@@H]5CO)O[C@@H]4CO)O[C@@H]3CO` [α-CD, α-cyclodextrin], the “dynamic rheology behaviour as ω→0 (long time scales)” value [1] was “G′ and G″ are observed to overlap, indicating the onset of gelation over long time scales”, the dynamic rheology response [1] was “viscous liquid” and the “dynamic rheology response (G′, G″) of blood gel after supramolecule” value [4] was “liquid-like with G″>G′ over the frequency range”. The “reversal of blood gelation (visual observation)” value [5] was “quickly reverse the gelling and convert the sample into a thin, flowing liquid; also recorded: instantly reverse the gelling and convert the sample into a thin, flowing liquid; also recorded: disruption of the gel into a freely flowing viscous liquid”, the “solubility (solvent)” value [2] was “soluble in water” and the zero-shear viscosity ([3]; 28.6 mM cyclodextrin) was ~0.01 Pa·s. For the same compound, the “viscosity drop on addition of cyclodextrin” value [3] was “million-fold” and the “reversal of gelation of vesicles by hm-chitosan” value [3] was “reverse the gelation of vesicles by hm-chitosan”.

In the case of `OC[C@H]1O[C@@H]2O[C@H]3[C@H](O)[C@@H](O)[C@@H](O[C@H]4[C@H](O)[C@@H](O)[C@@H](O[C@H]5[C@H](O)[C@@H](O)[C@@H](O[C@H]6[C@H](O)[C@@H](O)[C@@H](O[C@H]7[C@H](O)[C@@H](O)[C@@H](O[C@H]8[C@H](O)[C@@H](O)[C@@H](O[C@H]1[C@H](O)[C@H]2O)O[C@@H]8CO)O[C@@H]7CO)O[C@@H]6CO)O[C@@H]5CO)O[C@@H]4CO)O[C@@H]3CO` [β-CD, β-cyclodextrin], the “solubility (solvent)” value [2] is given as “more soluble in ethyl alcohol”.

Reference: patent US8664199B2, “Method and system for reversal of interactions between hydrophobically modified biopolymers and vesicles or cell membranes” (University of Maryland, College Park, priority 2010, dated 2014)
